Experimental data: paper PMC9266550, “The 2-hydroxy-3-(4-aryl-1-piperazinyl)propyl Phthalimide Derivatives as Prodrugs—Spectroscopic and Theoretical Binding Studies with Plasma Proteins” (International Journal of Molecular Sciences, 2022)

Assays:
[1] = biological target: T1, bovine α1-acid glycoprotein (AAG), orosomucoid (Bos taurus, UniProt Q3SZR3); experiment: intrinsic fluorescence quenching, excitation […] nm; format: binding; details: 297 K, phosphate buffer pH 7.5; double-log
T1 construct: gene ORM1; native plasma glycoprotein, commercial (Sigma-Aldrich), mature form
T1 sequence (Q3SZR3 19-202): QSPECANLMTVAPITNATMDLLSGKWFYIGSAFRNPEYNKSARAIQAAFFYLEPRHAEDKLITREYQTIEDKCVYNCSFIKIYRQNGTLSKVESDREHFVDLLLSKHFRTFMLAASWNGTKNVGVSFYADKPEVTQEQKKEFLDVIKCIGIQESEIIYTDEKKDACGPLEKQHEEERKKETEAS

[2] = biological target: T2, bovine serum albumin (BSA) (Bos taurus, UniProt P02769); experiment: intrinsic fluorescence quenching, excitation […] nm; format: binding; details: 297 K, phosphate buffer pH 7.5, no site marker; double-log
T2 construct: gene ALB; native plasma protein, commercial (Sigma-Aldrich), mature form
T2 sequence (P02769 25-607): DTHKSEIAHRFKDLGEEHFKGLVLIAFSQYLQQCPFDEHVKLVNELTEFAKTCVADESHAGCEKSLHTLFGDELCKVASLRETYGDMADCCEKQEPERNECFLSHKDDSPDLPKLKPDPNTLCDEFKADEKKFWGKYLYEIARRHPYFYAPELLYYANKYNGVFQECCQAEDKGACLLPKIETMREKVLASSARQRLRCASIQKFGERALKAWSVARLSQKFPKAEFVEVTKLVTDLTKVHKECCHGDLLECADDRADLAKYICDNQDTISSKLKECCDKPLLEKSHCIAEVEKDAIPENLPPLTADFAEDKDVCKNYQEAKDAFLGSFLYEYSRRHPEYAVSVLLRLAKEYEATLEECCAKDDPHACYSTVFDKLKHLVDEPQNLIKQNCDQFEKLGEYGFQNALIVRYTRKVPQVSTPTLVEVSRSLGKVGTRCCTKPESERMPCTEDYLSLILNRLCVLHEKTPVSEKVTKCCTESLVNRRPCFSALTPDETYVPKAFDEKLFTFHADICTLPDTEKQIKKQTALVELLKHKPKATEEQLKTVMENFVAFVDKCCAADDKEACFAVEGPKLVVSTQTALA

Structure (SMILES)	Binding / Kb × 10^3 [dm^3.mol^-1] [1]	Binding / Kb × 10^5 [dm^3.mol^-1] [2]
COc1ccccc1N1CCN(CC(O)CN2C(=O)c3ccccc3C2=O)CC1 (centres unmarked) [F2]	1.21 × 10^3 dm^3·mol^−1	0.55 × 10^5 dm^3·mol^−1
O=C1c2ccccc2C(=O)N1CC(O)CN1CCN(c2cccc(C(F)(F)F)c2)CC1 (centres unmarked) [F3]	4.17 × 10^3 dm^3·mol^−1	1.75 × 10^5 dm^3·mol^−1
O=C1c2ccccc2C(=O)N1CC(O)CN1CCN(C(c2ccccc2)c2ccccc2)CC1 (centres unmarked) [F4]	2.75 × 10^3 dm^3·mol^−1	1.99 × 10^5 dm^3·mol^−1
O=C1c2ccccc2C(=O)N1CC(O)CN1CCN(c2ccccc2)CC1 (centres unmarked) [F1]	2.12 × 10^3 dm^3·mol^−1	2.13 × 10^5 dm^3·mol^−1
